According to patent US8168592B2 (Amgen Inc., priority 2005, dated 2012):
Each block holds one compound with its values, some of them ahead of it. Square brackets hold non-standard residues; d marks the D form. Peptide text beside a SMILES is read from it. 1Nal = N[C@@H](Cc1cccc2ccccc12)C(=O)O; Phg = N[C@H](C(=O)O)c1ccccc1

Experiments:
[1] = molecular target: T1, CGRP1 receptor (human neuroblastoma cell (SK-N-MC) membrane) (Homo sapiens, UniProt O60894+Q16602); assay: CGRP1 binding assay (125I-hαCGRP displacement); conditions: Table 3B
T1 construct: human neuroblastoma cell (SK-N-MC) membrane suspension; purchased PerkinElmer; host or cells: SK-N-MC human neuroblastoma cell membranes (endogenous receptor)
T1 sequence (Q16602 23-461): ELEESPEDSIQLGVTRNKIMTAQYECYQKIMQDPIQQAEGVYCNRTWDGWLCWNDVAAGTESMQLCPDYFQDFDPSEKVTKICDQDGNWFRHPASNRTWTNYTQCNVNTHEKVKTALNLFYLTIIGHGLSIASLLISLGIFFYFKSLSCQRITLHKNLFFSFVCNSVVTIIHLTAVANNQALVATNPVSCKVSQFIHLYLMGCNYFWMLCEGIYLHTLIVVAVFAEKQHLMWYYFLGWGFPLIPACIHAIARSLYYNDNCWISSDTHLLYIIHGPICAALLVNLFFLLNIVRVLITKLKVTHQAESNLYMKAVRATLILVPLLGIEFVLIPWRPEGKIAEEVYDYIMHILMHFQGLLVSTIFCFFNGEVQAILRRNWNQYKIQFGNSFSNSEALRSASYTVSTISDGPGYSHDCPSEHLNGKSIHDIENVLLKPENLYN
T1 sequence (O60894 27-148): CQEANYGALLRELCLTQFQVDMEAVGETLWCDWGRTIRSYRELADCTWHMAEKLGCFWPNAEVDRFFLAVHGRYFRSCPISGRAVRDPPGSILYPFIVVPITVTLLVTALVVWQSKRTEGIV
Method: CGRP1 binding experiments. […] The plates were incubated at room temperature for 2 hour with shaking at 60 rpm, then the contents of each well were filtered over 0.5% polyethyleneimine (PEI)-treated (at least one hour) GF/C 96-well filter plates. The GF/C filter plates were washed 6 times with ice-cold 50 mM Tris, pH 7.5 and dried in an oven at 55 C for 1 hour. The bottoms of the GF/C plates were then sealed, and 40 μl Microscint™ 20 was added to each well, then the tops of the GF/C plates were sealed with TopSeal™-A, a press-on adhesive sealing film, and the GF/C plates were counted with TopCount NXT (Packard). The data were analyzed by using ActivityBase (IDBS) or Prizm (GraphPad) software.

[2] = in vitro stability in 10% rat plasma, LC-MS/MS; type: in vitro ADME; conditions: room temperature; for % Remaining / remaining at 0.5 h, 100 ng/ml / remaining at 1 h, 100 ng/ml / remaining at 2 h, 100 ng/ml / remaining at 3 h, 100 ng/ml / remaining at 4 h, 100 ng/ml / remaining at 5 h, 100 ng/ml / remaining at 6 h, 100 ng/ml: 100 ng/ml; for % Remaining: 0 h
Method: (§1) Consequently, the stability of select, non-PEGylated analogs was evaluated in vitro in the presence of 10% rat or human plasma. Briefly, samples of each peptide were diluted to 100 ng/ml into PBS containing 10% of rat or human plasma. Each sample was then incubated at room temperature and analyzed by LC-MS/MS to quantitate the intact peptide remaining at select time points over 6 hours.

[3] = in vitro stability in 10% human plasma, LC-MS/MS; type: in vitro ADME; conditions: room temperature
Method: as §1

CGRP1 receptor = molecular target: T2, CGRP1 receptor (Homo sapiens, UniProt O60894+Q16602); assay: in vitro CGRP1 receptor mediated cAMP assay in SK-N-MC cells; type: cell-based
T2 construct: SK-N-MC cells express CRLR and RAMP1, which form CGRP1 receptor; endogenous in cells; host or cells: SK-N-MC human neuroblastoma cells
T2 sequence (Q16602 23-461): as the sequence (Q16602 23-461) above
T2 sequence (O60894 27-148): as the sequence (O60894 27-148) above
In short: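 Human SK-N-MC neuroblastoma cells, which endogenously express CRLR/RAMP1, were plated two days before assay and preincubated in plasma-free medium for 15 minutes at room temperature. Cells were then lysed for 30 minutes at 37° C, and cAMP in the lysates was quantified by competitive cAMP-AP chemiluminescent ELISA.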

[4] = read-out: time at which 50% depleted
[5] = read-out: time at which 50% depleted / detectable
[6] = read-out: time at which 50% remains (converted)

Compound: 685 (Ac-WVTHRLAGLLSRSGGVVK(20 kDa PEG)NNFVPTDVGPFAF-NH2) [compound 685]
Ki [1]: 155 nM

Compound: 686 (Ac-WVTHRLAGLLSRSGGVVK(20 kDa PEG)NNFVPTDVGPFAF-NH2) [compound 686]
Ki [1]: 1.33 nM

Compound: CC(=O)N[C@@H](Cc1c[nH]c2ccccc12)C(=O)N[C@H](C(=O)N[C@H](C(=O)N[C@@H](Cc1cnc[nH]1)C(=O)N[C@@H](CCCN=C(N)N)C(=O)N[C@@H](CC(C)C)C(=O)N[C@@H](C)C(=O)NCC(=O)N[C@@H](CC(C)C)C(=O)N[C@@H](CC(C)C)C(=O)N[C@@H](CO)C(=O)N[C@@H](CCCN=C(N)N)C(=O)N[C@@H](CO)C(=O)NCC(=O)NCC(=O)N[C@H](C(=O)N[C@H](C(=O)N[C@@H](CCCN=C(N)N)C(=O)N[C@@H](CCCCN)C(=O)N[C@@H](CC(N)=O)C(=O)N[C@@H](Cc1ccccc1)C(=O)N[C@H](C(=O)N1CCC[C@H]1C(=O)N[C@H](C(=O)N[C@@H](CC(=O)O)C(=O)N[C@H](C(=O)NCC(=O)N1CCC[C@H]1C(=O)N[C@@H](Cc1ccccc1)C(=O)N[C@@H](C)C(=O)N[C@@H](Cc1ccccc1)C(N)=O)C(C)C)[C@@H](C)O)C(C)C)C(C)C)C(C)C)[C@@H](C)O)C(C)C [SEQ ID NO:7]
time at which about 10% of the starting concentration remains [2]: ~2.5 h
half-life at 100 ng/ml [2, 4]: ~45 min
time at which about 10% of the starting concentration remains [3]: about 1 hours
half-life at 100 ng/ml [3, 5]: < 30 min

Compound: CC(=O)N[C@@H](Cc1c[nH]c2ccccc12)C(=O)N[C@H](C(=O)N[C@H](C(=O)N[C@@H](Cc1cnc[nH]1)C(=O)N[C@@H](CCCCNC(=N)N)C(=O)N[C@@H](CC(C)C)C(=O)N[C@@H](C)C(=O)NCC(=O)N[C@@H](CC(C)C)C(=O)N[C@@H](CC(C)C)C(=O)N[C@@H](CO)C(=O)N[C@@H](CCCCNC(=N)N)C(=O)N[C@@H](CO)C(=O)NCC(=O)NCC(=O)N[C@H](C(=O)N[C@H](C(=O)N[C@@H](CCCNC(=N)N)C(=O)N[C@@H](CCCCN)C(=O)N[C@@H](CC(N)=O)C(=O)N[C@@H](Cc1ccccc1)C(=O)N[C@H](C(=O)N1CCC[C@H]1C(=O)N[C@H](C(=O)N[C@@H](CC(=O)O)C(=O)N[C@H](C(=O)NCC(=O)N1CCC[C@H]1C(=O)N[C@@H](Cc1ccccc1)C(=O)N[C@@H](C)C(=O)N[C@@H](Cc1ccccc1)C(N)=O)C(C)C)[C@@H](C)O)C(C)C)C(C)C)C(C)C)[C@@H](C)O)C(C)C [SEQ ID NO:25]
time at which about 10% of the starting concentration remains [2]: about 5 hours
half-life at 100 ng/ml [2, 6]: ~90 min
time at which about 10% of the starting concentration remains [3]: about 2 hours
half-life at 100 ng/ml [3, 5]: ~30 min
reduced antagonist activity relative to the single-substitution analogs (CGRP1 receptor; non-PEGylated double substitution at R11 and R18): about 5 fold

Compound: CC(C)C[C@H](NC(=O)CNC(=O)[C@H](C)NC(=O)[C@H](CC(C)C)NC(=O)[C@H](CCCNC(=N)N)NC(=O)[C@H](Cc1c[nH]cn1)NC(=O)[C@@H](NC(=O)[C@@H](NC(=O)[C@@H](N)Cc1cccc2ccccc12)C(C)C)[C@@H](C)O)C(=O)N[C@@H](CC(C)C)C(=O)N[C@@H](CO)C(=O)N[C@@H](CCCNC(=N)N)C(=O)N[C@@H](CO)C(=O)NCC(=O)NCC(=O)N[C@H](C(=O)N[C@H](C(=O)N[C@@H](CCCCN)C(=O)N[C@@H](CC(N)=O)C(=O)N[C@@H](CC(N)=O)C(=O)N[C@@H](Cc1ccccc1)C(=O)N[C@H](C(=O)N1CCC[C@H]1C(=O)N[C@H](C(=O)N[C@@H](CC(=O)O)C(=O)N[C@H](C(=O)NCC(=O)N1CCC[C@H]1C(=O)N[C@@H](Cc1ccccc1)C(=O)N[C@@H](C)C(=O)N[C@@H](Cc1ccccc1)C(N)=O)C(C)C)[C@@H](C)O)C(C)C)C(C)C)C(C)C [compound 701] (H-[1Nal]VTHRLAGLLSRSGGVVKNNFVPTDVGPFAF-NH2)
Ki [1]: 0.14 nM

Compound: CC(C)C[C@H](NC(=O)CNC(=O)[C@H](C)NC(=O)[C@H](CC(C)C)NC(=O)[C@H](CCCNC(=N)N)NC(=O)[C@H](Cc1c[nH]cn1)NC(=O)[C@@H](NC(=O)[C@@H](NC(=O)[C@@H](N)c1ccccc1)C(C)C)[C@@H](C)O)C(=O)N[C@@H](CC(C)C)C(=O)N[C@@H](CO)C(=O)N[C@@H](CCCNC(=N)N)C(=O)N[C@@H](CO)C(=O)NCC(=O)NCC(=O)N[C@H](C(=O)N[C@H](C(=O)N[C@@H](CCCCN)C(=O)N[C@@H](CC(N)=O)C(=O)N[C@@H](CC(N)=O)C(=O)N[C@@H](Cc1ccccc1)C(=O)N[C@H](C(=O)N1CCC[C@H]1C(=O)N[C@H](C(=O)N[C@@H](CC(=O)O)C(=O)N[C@H](C(=O)NCC(=O)N1CCC[C@H]1C(=O)N[C@@H](Cc1ccccc1)C(=O)N[C@@H](C)C(=O)N[C@@H](Cc1ccccc1)C(N)=O)C(C)C)[C@@H](C)O)C(C)C)C(C)C)C(C)C [compound 703] (H-[Phg]VTHRLAGLLSRSGGVVKNNFVPTDVGPFAF-NH2)
Ki [1]: 0.19 nM

Compound: Ac-WVTHRLAGLLSQSGGVVRKNFVPTDVGPFAF-NH2 [compound 37]
% Remaining [2]: 100.0%
remaining at 0.5 h, 100 ng/ml [2]: 62.7%
remaining at 1 h, 100 ng/ml [2]: 39.5%
remaining at 2 h, 100 ng/ml [2]: 10.5%
remaining at 3 h, 100 ng/ml [2]: 4.7%
remaining at 4 h, 100 ng/ml [2]: 2.5%
remaining at 5 h, 100 ng/ml [2]: 1.3%
remaining at 6 h, 100 ng/ml [2]: 0.7%

More lines, now with the values ahead:

Ki [1]: 0.49 nM
Compound: 687 (Ac-WVTHRLAGLLSRSGGVVK(20 kDa PEG)NNFVPTDVGPFAF-NH2) [compound 687]

% Remaining [2]: 100.0%
remaining at 0.5 h, 100 ng/ml [2]: 55.4%
remaining at 1 h, 100 ng/ml [2]: 34.5%
remaining at 2 h, 100 ng/ml [2]: 8%
remaining at 3 h, 100 ng/ml [2]: 5.2%
remaining at 4 h, 100 ng/ml [2]: 1.4%
remaining at 5 h, 100 ng/ml [2]: 1.7%
remaining at 6 h, 100 ng/ml [2]: 0.6%
IC50 (CGRP1 receptor; Table 3, unconjugated CGRP peptide analogs, n = 2-4, read-out: IC50): 0.13 nM
Compound: CC(=O)N[C@@H](Cc1c[nH]c2ccccc12)C(=O)N[C@H](C(=O)N[C@H](C(=O)N[C@@H](Cc1cnc[nH]1)C(=O)N[C@@H](CCCN=C(N)N)C(=O)N[C@@H](CC(C)C)C(=O)N[C@@H](C)C(=O)NCC(=O)N[C@@H](CC(C)C)C(=O)N[C@@H](CC(C)C)C(=O)N[C@@H](CO)C(=O)N[C@@H](CCCN=C(N)N)C(=O)N[C@@H](CO)C(=O)NCC(=O)NCC(=O)N[C@H](C(=O)N[C@H](C(=O)N[C@@H](CCCN=C(N)N)C(=O)N[C@@H](CCCCN)C(=O)N[C@@H](CC(N)=O)C(=O)N[C@@H](Cc1ccccc1)C(=O)N[C@H](C(=O)N1CCC[C@H]1C(=O)N[C@H](C(=O)N[C@@H](CC(=O)O)C(=O)N[C@H](C(=O)NCC(=O)N1CCC[C@H]1C(=O)N[C@@H](Cc1ccccc1)C(=O)N[C@@H](C)C(=O)N[C@@H](Cc1ccccc1)C(N)=O)C(C)C)[C@@H](C)O)C(C)C)C(C)C)C(C)C)[C@@H](C)O)C(C)C [compound 7]

time at which about 10% of the starting concentration remains [2]: about 5 hours
half-life at 100 ng/ml [2, 6]: ~90 min
time at which about 10% of the starting concentration remains [3]: about 4 hours
half-life at 100 ng/ml [3, 6]: ~60 min
Compound: Ac-WVTHQLAGLLSQSGGVVRKNFVPTDVGPFAF-NH2 [SEQ ID NO:39]

% Remaining [2]: 100.0%
remaining at 0.5 h, 100 ng/ml [2]: 83.8%
remaining at 1 h, 100 ng/ml [2]: 66.2%
remaining at 2 h, 100 ng/ml [2]: 29.9%
remaining at 3 h, 100 ng/ml [2]: 20.4%
remaining at 4 h, 100 ng/ml [2]: 11.8%
remaining at 5 h, 100 ng/ml [2]: 6.4%
remaining at 6 h, 100 ng/ml [2]: 4%
Compound: Ac-WVTHQLAGLLSQSGGVVRKNFVPTDVGPFAF-NH2 [compound 39]

time at which about 10% of the starting concentration remains [2]: ~2.5 h
half-life at 100 ng/ml [2, 4]: ~45 min
time at which about 10% of the starting concentration remains [3]: about 1 hours
half-life at 100 ng/ml [3, 5]: < 30 min
Compound: Ac-WVTHRLAGLLSQSGGVVRKNFVPTDVGPFAF-NH2 [SEQ ID NO:37]
